From ChEMBL document CHEMBL3885861, “Open TG-GATES”

Species: Rattus norvegicus
Assay: Open TG-GATES - Regimen: Single
Assay type: toxicity, organism-based, Sprague-Dawley
Parameters: regimen Single, gender Male, age 6 weeks
Conditions: in vivo, po, 300 mg/kg, route gavage, dose level Middle; for APTT / Bas / Eos / Fbg / Hb / Ht / Lym / MCH / MCHC / MCV / Mono / Neu / PT / Plat / RBC / Ret / WBC: tissue Blood; for KIDNEY_L / KIDNEY_R / KIDNEY_TOTAL: tissue Kidney; for LIVER: tissue Liver; for A/G / ALP / ALT / AST / BUN / CRE / Ca / Cl / DBIL / GLC / IP / K / LDH / Na / PL / RALB / TBIL / TC / TG / TP / gamma-GTP: tissue Plasma

O=C(O)COc1nn(Cc2ccccc2)c2ccccc12 [BENDAZAC]
TERMINAL_BW (3 h): 210.1 g | APTT (3 h): 17.4 s | Bas (3 h): 0% | Eos (3 h): 1% | Fbg (3 h): 206.8 mg/dL | Hb (3 h): 13.9 g/dL | Ht (3 h): 41.6% | Lym (3 h): 80.4% | MCH (3 h): 21.7 pg | MCHC (3 h): 33.5% | MCV (3 h): 64.7 fL | Mono (3 h): 5.2% | Neu (3 h): 13.4% | PT (3 h): 11.7 s | Plat (3 h): 116.9 x10_4/uL | RBC (3 h): 643.4 x10_4/ul | Ret (3 h): 9.9% | WBC (3 h): 91 x10_2/uL | KIDNEY_L (3 h): 1 g | KIDNEY_R (3 h): 1 g | KIDNEY_TOTAL (3 h): 2 g | LIVER (3 h): 9.4 g | A/G (3 h): 2.1 | ALP (3 h): 1450 IU/L | ALT (3 h): 35.6 IU/L | AST (3 h): 69.2 IU/L | BUN (3 h): 11.8 mg/dL | CRE (3 h): 0.5 mg/dL | Ca (3 h): 10.6 mg/dL | Cl (3 h): 101 meq/L | DBIL (3 h): 0.014 mg/dL | GLC (3 h): 189.2 mg/dL | IP (3 h): 10.5 mg/dL | K (3 h): 4.9 meq/L | LDH (3 h): 105 IU/L | Na (3 h): 139.4 meq/L | PL (3 h): 124.4 mg/dL | RALB (3 h): 3.6 g/dL | TBIL (3 h): 1.3 mg/dL | TC (3 h): 71.6 mg/dL | TG (3 h): 46 mg/dL | TP (3 h): 5.4 g/dL | gamma-GTP (3 h): 1 IU/L | TERMINAL_BW (6 h): 207.7 g | APTT (6 h): 17.2 s | Bas (6 h): 0% | Eos (6 h): 1.4% | Fbg (6 h): 214.8 mg/dL | Hb (6 h): 13.9 g/dL | Ht (6 h): 41.7% | Lym (6 h): 78.2% | MCH (6 h): 21.7 pg | MCHC (6 h): 33.3% | MCV (6 h): 65.1 fL | Mono (6 h): 7.8% | Neu (6 h): 13% | PT (6 h): 11.9 s | Plat (6 h): 119.6 x10_4/uL | RBC (6 h): 641.8 x10_4/ul | Ret (6 h): 11.7% | WBC (6 h): 98.8 x10_2/uL | KIDNEY_L (6 h): 1 g | KIDNEY_R (6 h): 1 g | KIDNEY_TOTAL (6 h): 2 g | LIVER (6 h): 8.9 g | A/G (6 h): 2.3 | ALP (6 h): 3422.2 IU/L | ALT (6 h): 30.2 IU/L | AST (6 h): 60.8 IU/L | BUN (6 h): 8.8 mg/dL | CRE (6 h): 0.6 mg/dL | Ca (6 h): 10.9 mg/dL | Cl (6 h): 101.8 meq/L | DBIL (6 h): 0.066 mg/dL | GLC (6 h): 189.6 mg/dL | IP (6 h): 10.7 mg/dL | K (6 h): 4.9 meq/L | LDH (6 h): 97 IU/L | Na (6 h): 141.2 meq/L | PL (6 h): 135.4 mg/dL | RALB (6 h): 3.8 g/dL | TBIL (6 h): 1.5 mg/dL | TC (6 h): 78.2 mg/dL | TG (6 h): 27 mg/dL | TP (6 h): 5.4 g/dL | gamma-GTP (6 h): 1 IU/L | TERMINAL_BW (9 h): 200.4 g | APTT (9 h): 17.2 s | Bas (9 h): 0% | Eos (9 h): 1% | Fbg (9 h): 205 mg/dL | Hb (9 h): 14 g/dL | Ht (9 h): 41.8% | Lym (9 h): 81.8% | MCH (9 h): 22.3 pg | MCHC (9 h): 33.4% | MCV (9 h): 66.8 fL | Mono (9 h): 5.2% | Neu (9 h): 12% | PT (9 h): 11.8 s | Plat (9 h): 121.4 x10_4/uL | RBC (9 h): 626.2 x10_4/ul | Ret (9 h): 8.8% | WBC (9 h): 86.7 x10_2/uL | KIDNEY_L (9 h): 0.9 g | KIDNEY_R (9 h): 1 g | KIDNEY_TOTAL (9 h): 1.9 g | LIVER (9 h): 7.8 g | A/G (9 h): 2.1 | ALP (9 h): 2047.2 IU/L | ALT (9 h): 29 IU/L | AST (9 h): 60.2 IU/L | BUN (9 h): 9.6 mg/dL | CRE (9 h): 0.6 mg/dL | Ca (9 h): 10.3 mg/dL | Cl (9 h): 103.6 meq/L | DBIL (9 h): 0.028 mg/dL | GLC (9 h): 183.8 mg/dL | IP (9 h): 10 mg/dL | K (9 h): 4.7 meq/L | LDH (9 h): 94.4 IU/L | Na (9 h): 143 meq/L | PL (9 h): 126 mg/dL | RALB (9 h): 3.7 g/dL | TBIL (9 h): 1.2 mg/dL | TC (9 h): 72.4 mg/dL | TG (9 h): 39.4 mg/dL | TP (9 h): 5.5 g/dL | gamma-GTP (9 h): 1.2 IU/L | TERMINAL_BW (24 h): 220.3 g | APTT (24 h): 16.8 s | Bas (24 h): 0% | Eos (24 h): 1% | Fbg (24 h): 208.6 mg/dL | Hb (24 h): 13.6 g/dL | Ht (24 h): 40.7% | Lym (24 h): 78.6% | MCH (24 h): 21.3 pg | MCHC (24 h): 33.3% | MCV (24 h): 63.9 fL | Mono (24 h): 9.6% | Neu (24 h): 11% | PT (24 h): 12.2 s | Plat (24 h): 120.5 x10_4/uL | RBC (24 h): 637.8 x10_4/ul | Ret (24 h): 8% | WBC (24 h): 98.3 x10_2/uL | KIDNEY_L (24 h): 1 g | KIDNEY_R (24 h): 1 g | KIDNEY_TOTAL (24 h): 2 g | LIVER (24 h): 11.3 g | A/G (24 h): 2.2 | ALP (24 h): 1529.6 IU/L | ALT (24 h): 39 IU/L | AST (24 h): 71.2 IU/L | BUN (24 h): 19.8 mg/dL | CRE (24 h): 0.6 mg/dL | Ca (24 h): 11 mg/dL | Cl (24 h): 104 meq/L | DBIL (24 h): 0.006 mg/dL | GLC (24 h): 187.2 mg/dL | IP (24 h): 6.3 mg/dL | K (24 h): 4.5 meq/L | LDH (24 h): 123.4 IU/L | Na (24 h): 140 meq/L | PL (24 h): 132 mg/dL | RALB (24 h): 3.8 g/dL | TBIL (24 h): 1 mg/dL | TC (24 h): 66.8 mg/dL | TG (24 h): 111 mg/dL | TP (24 h): 5.5 g/dL | gamma-GTP (24 h): 1 IU/L
